Assay [1] addresses T1, HIV reverse transcriptase (RNase H activity) (Human immunodeficiency virus type 1 group M subtype B, UniProt P04585).
T1 construct: HIV reverse transcriptase has an RNase H domain at the C-terminus of its p66 subunit
Description: Inhibition of RNase H / HIV reverse transcriptase (fluorescent probe-target hybrid assay). It is filed as biochemical. As to conditions: Table I. From the text:
RNase H is an enzyme responsible for the removal of RNA primers from leading and lagging strands during DNA synthesis. It is an important enzyme for the replication of bacterial, viral and human genomes. HIV reverse transcriptase has an RNase H domain at the C-terminus of its p66 subunit. […] The ability of the compounds of the present invention to inhibit RNase H, and more particularly HIV reverse transcriptase, may be measured or determined by any means known in the art.
Preferably, the RNase H/HIV reverse transcriptase modulatory activity of the compounds of the present invention may be determined by the methods described in a copending U.S. provisional patent Application No. 60/436,125, filed Dec. 19, 2002 and PCT Publication No. WO 2004/059012, filed Dec. 22, 2003, published Jul. 15, 2004, entitled ASSAY FOR RNase ACTIVITY of Olson et al., incorporated herein by reference in their entirety. Specifically, the modulatory activity of a hydantoin derivative of the present invention may be determined by hybridizing a target nucleic acid to a fluorescently labeled oligonucleotide probe complementary to the target nucleic acid and containing a fluorophor at one terminus and a quenching group at the other terminus to obtain a probe-target hybrid, wherein (i) the unhybridized probe adopts a conformation that places the fluorophor and quencher in such proximity that the quencher quenches the fluorescent signal of the fluorophor, and (ii) the formation of the probe-target hybrid causes sufficient separation of the fluorophor and quencher to reduce quenching of the fluorescent signal of the fluorophor. Next, a first and second sample containing the probe-target hybrid are prepared. The probe-target hybrid of the first sample is then contacted with an RNase H enzyme (such as HIV reverse transcriptase) in an amount sufficient to selectively cleave the target nucleic acid and thereby release the intact probe. The probe-target hybrid of the second sample is also contacted with the RNase H enzyme in an amount sufficient to selectively cleave the target nucleic acid and thereby release the intact probe in the presence of a hydantoin derivative of the present invention. The release of the probe in each sample may then be detected by measuring the […] in the fluorescent signal of the fluorophor as compared to the signal of the probe-target hybrid. A comparison of the rate of the decrease in the fluorescent signal of the fluorophor in the two samples is made to determine whether there is a difference in the rate of the decrease in the two samples. […] This method is also useful to identify hydantoin derivatives of the present invention, wherein candidate hydantoin derivatives are screened for their ability to modulate RNase/HIV reverse transcriptase activity.

Assay [2] deals with T2, HIV reverse transcriptase (RDDP polymerase activity) (Human immunodeficiency virus type 1 group M subtype B, UniProt P04585).
T2 construct: HIV Reverse transcriptase (RT) 66/p51; purchased Worthington
The experiment in a line: RNA dependent DNA polymerase (RDDP) activity of HIV RT, polyrA-oligodT12-18 / 33P TTP incorporation. It is filed as biochemical.

By IC50 is commonly meant the point on the concentration scale where inhibition reaches its midpoint. Read a high IC50 as weaker potency in that assay. `O=C(c1ccccc1)N1C(=O)N2CCc3ccccc3C2(c2ccccc2)C1=O` (stereo not shown) [2-benzoyl-10b-phenyl-6,10b-dihydro-5H-imidazo[5,1-a]isoquinoline-1,3-dione] yielded an IC50 in assay [1] of 63 µM. In the case of `O=C1NC(c2ccccc2)(c2ccccc2)C(=O)N1CCCBr` [3-(3-bromopropyl)-5,5-diphenyl-2,4-imidazolidinedione], the IC50 in assay [1] was 56 µM; in assay [2], > 146 µM. In assay [1], `Cc1cc(C(=O)N2C(=O)NC(C)(c3ccccc3)C2=O)ccc1Cl` (stereo not shown) [3-(4-chloro-3-methylbenzoyl)-5-methyl-5-phenylimidazolidine-2,4-dione] had an IC50 of 100 µM. Regarding `Cc1ccc(C(=O)C(C)N2C(=O)NC(C)(c3ccccc3)C2=O)cc1Cl` (stereo not shown) [3-[2-(3-chloro-4-methylphenyl)-1-methyl-2-oxoethyl]-5-methyl-5-phenyl-2,4-imidazolidinedione], the IC50 in assay [1] was 51 µM; in assay [2] it was > 103 µM. `CC1(c2ccccc2)NC(=O)N(C(=O)/C=C/c2ccc(Cl)c(Cl)c2)C1=O` (stereo not shown) [3-[(2E)-3-(3,4-dichlorophenyl)prop-2-enoyl]-5-methyl-5-phenylimidazolidine-2,4-dione]: the figures for the IC50 in assay [1] and in assay [2] were 52 µM and > 107 µM, respectively. In the same order, the values of `CC1(c2ccccc2)NC(=O)N(C(=O)/C=C/c2ccc(F)c(C(F)(F)F)c2)C1=O` (stereo not shown) [3-{(2E)-3-[4-fluoro-3-(trifluoromethyl)phenyl]prop-2-enoyl}-5-methyl-5-phenylimidazolidine-2,4-dione] are 99 µM and > 115 µM. In the same order, the values of `CCC1(c2ccc(C)cc2)N=C(O)N=C1O` (stereo not shown) [4-ethyl-4-(4-methylphenyl)-4H-imidazole-2,5-diol] are 4 µM and > 184 µM. In the same order, the values of `C=CN1C(=O)NC(C)(C)C1=O` [5,5-dimethyl-3-vinyl-imidazolidine-2,4-dione] are 50 µM and > 107 µM. With `O=C1NC(=O)C(=Cc2cc(Cl)cc(Cl)c2O)N1` [5-(3,5-Dichloro-2-hydroxy-benzylidene)-imidazolidine-2,4-dione], the IC50 in assay [1] is 57 µM; in assay [2], > 102 µM. In the same order, the values of `O=C1NC(=O)C(=Cc2cc(Br)cc(Br)c2O)N1` [5-(3,5-dibromo-2-hydroxy-benzylidene)-imidazolidine-2,4-dione] are 13 µM and > 111 µM.

In turn, `CCC1(c2ccc(Br)cc2)NC(=O)NC1=O` (stereo not shown) [5-(4-bromo-phenyl)-5-ethyl-imidazolidine-2,4-dione] yielded an IC50 in assay [1] of 64 µM.

Consider `Cc1ccc(C2(C3CC3)NC(=O)NC2=O)cc1C` (stereo not shown) [5-cyclopropyl-5-(3,4-dimethyl-phenyl)-2,4-imidazolidinedione], for which the IC50 in assay [1] is 41 µM; in assay [2], > 122 µM. In the same order, the values of `CC1(c2ccccc2)NC(=O)N(C(=O)/C=C/c2ccccc2)C1=O` (stereo not shown) [5-methyl-5-phenyl-3-[(2E)-3-phenylprop-2-enoyl]imidazolidine-2,4-dione] are 46 µM and > 260 µM.

As to `CC1(C)SC2C(NC(=O)C(NC(=O)CN3C(=O)NC(c4ccccc4)(c4ccccc4)C3=O)c3ccccc3)C(=O)N2C1C(=O)O` (stereo not shown) [6-[{[{(2,5-dioso-4,4-diphenylimidazolidin-1-yl)acetyl]amino}(phenyl)acetyl]amino}-3,3-dimethyl-7-oxo-4-thia-1-azabicyclo[3.2.0]heptane-2-carboxylic acid], the IC50 was 4 µM in assay [1] and > 62 µM in assay [2]. In the same order, the values of `C[C@]1(c2ccccc2)NC(=O)N(C(=O)/C=C/c2ccc(C(F)(F)F)cc2)C1=O` [(5R)-5-methyl-5-phenyl-3-{(2E)-3-[4(trifluoromethyl)phenyl]prop-2-enoyl]imidizolidine-2,4-dione] are 58 µM and > 105 µM. Consider `CC[C@@]1(c2ccc(C)cc2)NC(=O)NC1=O` [(5S)-5-ethyl-5-(4-methylphenyl)imidazolidine-2,4-dione], for which the IC50 in assay [1] is 2 µM; in assay [2], > 180 µM. The corresponding values for `C[C@@]1(c2ccccc2)NC(=O)N(C(=O)/C=C/c2ccc(C(F)(F)F)cc2)C1=O` [(5S)-5-methyl-5-phenyl-3-{(2E)-3-[4-(trifluoromethyl)phenyl]prop-2-enoyl}imidazolidine-2,4-dione] are 98 µM and > 100 µM. `Cc1cn([C@H]2C[C@H](N=[N+]=[N-])[C@@H](CO)O2)c(=O)[nH]c1=O` [AZT, reference compound]: the IC50 in assay [2] is < 0.2 µM. Take `CC(C)(C)OC(=O)N1C(=O)N(C(=O)OC(C)(C)C)C2(CCN(Cc3ccccc3)CC2)C1=O` [di(tert-butyl) 8-benzyl-2,4-dioxo-1,3,8-triazaspiro[4.5}decane-1,3-dicarboxylate]: the IC50 in assay [1] is 87 µM; in assay [2] it was > 103 µM.

The values above are taken from patent US20050203156A1, “Hydantoins having RNase modulatory activity” (Wyeth, priority 2004, published 2005).
